Experimental data taken from paper PMC5988656, “Phase I studies of AZD1208, a proviral integration Moloney virus kinase inhibitor in solid and haematological cancers” (British Journal of Cancer, 2018).

Test system: patients with advanced solid tumours
Experiment: Solid tumour dose-escalation study: safety and tolerability (AEs, DLTs)
Source text: Conducted at two UK centres and one in Japan. Dose escalation followed a rolling six design.[14] Patients received a single dose on Day 1 during Cycle 0, followed by a 3-day washout period, after which multiple dosing was initiated. Cycle 1 was a 21-day period from the first dose of multiple dosing.
The CTCAE (version 4.0) was utilised to grade all AE events.
AEs were summarised by Medical Dictionary for Regulatory Activities (MedDRA) system organ class, MedDRA preferred term and CTCAE grade. Summary statistics of mean, median, standard deviation, minimum, maximum and number of observations were used.

## N[C@@H]1CCCN(c2c(/C=C3\SC(=O)NC3=O)cccc2-c2ccccc2)C1 [AZD1208]
540 mg, n = 7
  White blood cell count decreased (all-grade AE): 2 (28.6) n (%)
700 mg
  Patients requiring dose interruptions because of AEs: 3 n
700 mg (nausea, fatigue)
  Patients with CTCAE grade ≥3 AEs causally related to AZD1208: 1 n
700 mg, n = 6
  Anaemia (all-grade AE): 3 (50.0) n (%)
  Constipation (all-grade AE): 2 (33.3) n (%)
  Decreased appetite (all-grade AE): 2 (33.3) n (%)
  Diarrhoea (all-grade AE): 5 (83.3) n (%)
  Dry skin (all-grade AE): 1 (16.7) n (%)
  Dyspnoea (all-grade AE): 0 (0.0) n (%)
  Fatigue (all-grade AE): 4 (66.7) n (%)
  GGT increased (all-grade AE): 0 (0.0) n (%)
  Hyperglycaemia (all-grade AE): 0 (0.0) n (%)
  Hypoalbuminaemia (all-grade AE): 3 (50.0) n (%)
  Hypokalaemia (all-grade AE): 1 (16.7) n (%)
  Hyponatraemia (all-grade AE): 1 (16.7) n (%)
  Insomnia (all-grade AE): 0 (0.0) n (%)
  Musculoskeletal chest pain (all-grade AE): 1 (16.7) n (%)
  Nausea (all-grade AE): 5 (83.3) n (%)
  Patients with any AE (all-grade AE): 6 (100.0) n (%)
  Platelet count decreased (all-grade AE): 1 (16.7) n (%)
  Pyrexia (all-grade AE): 2 (33.3) n (%)
  Thrombocytopenia (all-grade AE): 1 (16.7) n (%)
  Vomiting (all-grade AE): 4 (66.7) n (%)
  White blood cell count decreased (all-grade AE): 1 (16.7) n (%)
800 mg
  Patients requiring dose interruptions because of AEs: 2 n
800 mg (fatigue, hyperglycaemia)
  Patients with CTCAE grade ≥3 AEs causally related to AZD1208: 3 n
800 mg QD
  Tolerability: not tolerated
800 mg, n = 6
  Abdominal pain (all-grade AE): 0 (0.0) n (%)
  Anaemia (all-grade AE): 2 (33.3) n (%)
  Constipation (all-grade AE): 0 (0.0) n (%)
  DLT detail, action taken: Fatigue, drug interrupted; fatigue, drug interrupted
  Decreased appetite (all-grade AE): 3 (50.0) n (%)
  Diarrhoea (all-grade AE): 6 (100.0) n (%)
  Dry skin (all-grade AE): 0 (0.0) n (%)
  Dyspnoea (all-grade AE): 0 (0.0) n (%)
  Fatigue (all-grade AE): 5 (83.3) n (%)
  GGT increased (all-grade AE): 1 (16.7) n (%)
  Hyperglycaemia (all-grade AE): 2 (33.3) n (%)
  Hypoalbuminaemia (all-grade AE): 0 (0.0) n (%)
  Hypokalaemia (all-grade AE): 1 (16.7) n (%)
  Hyponatraemia (all-grade AE): 0 (0.0) n (%)
  Insomnia (all-grade AE): 1 (16.7) n (%)
  Musculoskeletal chest pain (all-grade AE): 0 (0.0) n (%)
  Nausea (all-grade AE): 4 (66.7) n (%)
  Patients with any AE (all-grade AE): 6 (100.0) n (%)
  Platelet count decreased (all-grade AE): 1 (16.7) n (%)
  Pyrexia (all-grade AE): 0 (0.0) n (%)
  Thrombocytopenia (all-grade AE): 1 (16.7) n (%)
  Vomiting (all-grade AE): 3 (50.0) n (%)
  White blood cell count decreased (all-grade AE): 0 (0.0) n (%)
Total N = 35
  Abdominal pain (all-grade AE): 8 (22.9) n (%)
  Anaemia (all-grade AE): 18 (51.4) n (%)
  Constipation (all-grade AE): 5 (14.3) n (%)
  Decreased appetite (all-grade AE): 15 (42.9) n (%)
  Diarrhoea (all-grade AE): 29 (82.9) n (%)
  Dry skin (all-grade AE): 7 (20.0) n (%)
  Dyspnoea (all-grade AE): 4 (11.4) n (%)
  Fatigue (all-grade AE): 17 (48.6) n (%)
  GGT increased (all-grade AE): 6 (17.1) n (%)
  Hyperglycaemia (all-grade AE): 8 (22.9) n (%)
  Hypoalbuminaemia (all-grade AE): 9 (25.7) n (%)
  Hypokalaemia (all-grade AE): 4 (11.4) n (%)
  Hyponatraemia (all-grade AE): 5 (14.3) n (%)
  Insomnia (all-grade AE): 4 (11.4) n (%)
  Musculoskeletal chest pain (all-grade AE): 4 (11.4) n (%)
  Nausea (all-grade AE): 26 (74.3) n (%)
  Patients with any AE (all-grade AE): 35 (100.0) n (%)
  Platelet count decreased (all-grade AE): 9 (25.7) n (%)
  Pyrexia (all-grade AE): 6 (17.1) n (%)
  Thrombocytopenia (all-grade AE): 5 (14.3) n (%)
  Vomiting (all-grade AE): 19 (54.3) n (%)
  White blood cell count decreased (all-grade AE): 9 (25.7) n (%)
All doses
  Patients with DLTs: Four
All doses, 35 patients
  AEs of grade ≥3, patients: 45.7%
  CTCAE grade ≥3 AEs causally related to AZD1208, patients: 28.6%
  CTCAE grade ≥3 GGT increase, patients: 8.6%
  CTCAE grade ≥3 abdominal pain, patients: 5.7%
  CTCAE grade ≥3 anaemia, patients: 5.7%
  CTCAE grade ≥3 fatigue, patients: 11.4%
  Diarrhoea causally related to AZD1208, patients: 68.6%
  Diarrhoea, patients: 82.9%
  Discontinued the study due to an AE, patients: 11.4%
  Dose interruptions because of AEs, patients: 45.7%
  Gastrointestinal disorders AEs, patients: 97.1%
  Nausea causally related to AZD1208, patients: 65.7%
  Nausea, patients: 74.3%
  Patients with ≥1 SAE: 22.9%
  SAE dyspnoea, patients: 5.7%
  SAE vomiting, patients: 5.7%
  Vomiting, patients: 54.3%
Any patient
  Treatment-related changes in haematology, clinical chemistry, vital signs, ECG or physical findings: No clinically significant treatment-related changes
Not considered AZD1208-related by the investigator
  Patients who died as a result of an AE: 2.9%
One patient, three SAEs (vomiting, fatigue, general physical health deterioration)
  Patients reporting treatment-related SAEs: 2.9%
Solid tumour study
  Doses tolerated as monotherapy: up to 700 mg QD
  Maximum tolerated dose (MTD): could not be determined
